Where two headings read alike, the source gives them in different places. One block for each molecule: values may come before it.
Columns and labels:
[1] = target: T1, mammalian thioredoxin reductase (TrxR) (Homo sapiens, UniProt Q16881); conditions: cited from earlier work
T1 sequence (Q16881 1-499 isoform Q16881-5): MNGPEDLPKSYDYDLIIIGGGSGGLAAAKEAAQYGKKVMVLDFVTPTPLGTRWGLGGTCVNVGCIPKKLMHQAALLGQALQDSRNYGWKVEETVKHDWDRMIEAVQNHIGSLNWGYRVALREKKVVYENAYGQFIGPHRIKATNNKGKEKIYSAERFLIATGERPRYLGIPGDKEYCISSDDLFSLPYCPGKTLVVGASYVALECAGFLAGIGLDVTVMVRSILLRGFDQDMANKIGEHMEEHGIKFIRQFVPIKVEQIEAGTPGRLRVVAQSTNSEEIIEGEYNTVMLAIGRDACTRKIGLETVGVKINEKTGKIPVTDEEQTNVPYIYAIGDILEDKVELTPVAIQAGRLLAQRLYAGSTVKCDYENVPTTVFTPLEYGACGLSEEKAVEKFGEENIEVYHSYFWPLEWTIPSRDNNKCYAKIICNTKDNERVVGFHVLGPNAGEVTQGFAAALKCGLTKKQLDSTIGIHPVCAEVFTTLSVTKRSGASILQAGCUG

ErbB-2 = ErbB-2 (Homo sapiens, UniProt P04626); parameters: key: the “+” and “−” symbols signify the ability and inability to activate each of the ErbB receptors, respectively; the “+” and “−” symbols signify the ability and inability to activate each of the ErbB receptors, respectively; conditions: ability to activate the receptor; cited from earlier work
ErbB-4 = ErbB-4 (Homo sapiens, UniProt Q15303); parameters: key: the “+” and “−” symbols signify the ability and inability to activate each of the ErbB receptors, respectively; the “+” and “−” symbols signify the ability and inability to activate each of the ErbB receptors, respectively; conditions: ability to activate the receptor; cited from earlier work
ErbB-4, sequence (Q15303 26-1308, species assumed): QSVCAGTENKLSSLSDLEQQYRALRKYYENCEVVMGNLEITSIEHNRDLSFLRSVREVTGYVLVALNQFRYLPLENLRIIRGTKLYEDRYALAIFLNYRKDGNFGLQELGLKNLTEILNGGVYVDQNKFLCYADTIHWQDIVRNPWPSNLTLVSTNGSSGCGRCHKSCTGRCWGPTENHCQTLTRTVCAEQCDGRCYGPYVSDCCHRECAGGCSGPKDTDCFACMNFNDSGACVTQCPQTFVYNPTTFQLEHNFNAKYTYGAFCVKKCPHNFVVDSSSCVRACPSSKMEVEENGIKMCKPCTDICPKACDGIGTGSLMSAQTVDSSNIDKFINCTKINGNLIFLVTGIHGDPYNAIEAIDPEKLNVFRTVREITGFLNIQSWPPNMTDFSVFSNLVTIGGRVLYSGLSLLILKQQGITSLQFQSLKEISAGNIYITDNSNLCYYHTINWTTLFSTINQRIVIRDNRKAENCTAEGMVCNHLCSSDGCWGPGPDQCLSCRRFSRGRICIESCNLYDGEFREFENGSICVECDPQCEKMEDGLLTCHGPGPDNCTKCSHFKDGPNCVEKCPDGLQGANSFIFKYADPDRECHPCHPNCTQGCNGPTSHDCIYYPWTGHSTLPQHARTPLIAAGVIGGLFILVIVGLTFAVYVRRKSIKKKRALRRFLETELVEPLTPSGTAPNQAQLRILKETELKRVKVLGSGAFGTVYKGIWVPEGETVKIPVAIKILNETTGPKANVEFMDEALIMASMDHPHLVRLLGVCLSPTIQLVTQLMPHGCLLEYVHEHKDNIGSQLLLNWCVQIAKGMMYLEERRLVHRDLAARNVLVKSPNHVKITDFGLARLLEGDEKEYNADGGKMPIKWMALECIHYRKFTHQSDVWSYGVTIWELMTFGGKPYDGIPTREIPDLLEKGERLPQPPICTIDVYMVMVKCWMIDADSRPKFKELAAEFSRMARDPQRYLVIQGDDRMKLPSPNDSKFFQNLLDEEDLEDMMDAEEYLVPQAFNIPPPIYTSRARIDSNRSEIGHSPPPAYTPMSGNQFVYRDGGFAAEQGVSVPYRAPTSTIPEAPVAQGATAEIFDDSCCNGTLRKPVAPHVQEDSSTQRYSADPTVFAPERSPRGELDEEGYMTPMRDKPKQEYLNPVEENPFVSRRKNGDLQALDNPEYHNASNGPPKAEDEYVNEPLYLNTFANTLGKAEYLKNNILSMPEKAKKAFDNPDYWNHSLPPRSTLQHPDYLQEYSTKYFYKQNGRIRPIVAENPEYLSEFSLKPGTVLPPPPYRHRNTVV

ErbB-3 = ErbB-3 (Homo sapiens, UniProt P21860); parameters: key: the “+” and “−” symbols signify the ability and inability to activate each of the ErbB receptors, respectively; the “+” and “−” symbols signify the ability and inability to activate each of the ErbB receptors, respectively; conditions: ability to activate the receptor; cited from earlier work
Recombinant human Trx [2] = target: T2, Recombinant human Trx (Homo sapiens, UniProt P10599); assay: LC MS of Trypsin digested Trx after incubation with Tavocept, mesna or glutathione; format: binding; parameters: purchased Sigma (SigmaAldrich); host or cells: E. coli; conditions: control reactions with glutathione
T2 sequence (P10599 1-105): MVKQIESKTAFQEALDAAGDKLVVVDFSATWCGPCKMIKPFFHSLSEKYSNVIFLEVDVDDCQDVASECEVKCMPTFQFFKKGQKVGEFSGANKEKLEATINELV

ErbB-1 = ErbB-1 (Homo sapiens, UniProt P00533); conditions: ability to activate the receptor; cited from earlier work
WT EGFR kinase = WT EGFR kinase (Homo sapiens, UniProt P00533); assay: WT EGFR kinase assay (ADP-glo); conditions: for potentiation of Erlotinib inhibition of WT EGFR kinase activity: 10 μM and 100 μM ATP
T790M EGFR kinase = T790M EGFR kinase (Homo sapiens, UniProt P00533, T790M); assay: T790M EGFR kinase assay (ADP-glo); format: biochemical; conditions: for IC50: read-out: IC50 on T790M EGFR kinase activity; for potentiation of Erlotinib inhibition of T790M EGFR kinase activity: 10 μM and 100 μM ATP
TrxR/Trx system = target: T3, TrxR/Trx system (Homo sapiens, UniProt P10599); assay: NADPH oxidation by TrxR and Trx; format: biochemical; conditions: increasing concentrations of the substance
T3 construct: 6xHis (N); purchased Sigma (Trx); American Diagnostica (bovine TrxR)
T3 sequence (P10599 1-105): T2 sequence (P10599 1-105)

[3] = target: T4, glutathione reductase (GR) (Homo sapiens, UniProt P00390); conditions: cited from earlier work
T4 sequence (P00390 44-522): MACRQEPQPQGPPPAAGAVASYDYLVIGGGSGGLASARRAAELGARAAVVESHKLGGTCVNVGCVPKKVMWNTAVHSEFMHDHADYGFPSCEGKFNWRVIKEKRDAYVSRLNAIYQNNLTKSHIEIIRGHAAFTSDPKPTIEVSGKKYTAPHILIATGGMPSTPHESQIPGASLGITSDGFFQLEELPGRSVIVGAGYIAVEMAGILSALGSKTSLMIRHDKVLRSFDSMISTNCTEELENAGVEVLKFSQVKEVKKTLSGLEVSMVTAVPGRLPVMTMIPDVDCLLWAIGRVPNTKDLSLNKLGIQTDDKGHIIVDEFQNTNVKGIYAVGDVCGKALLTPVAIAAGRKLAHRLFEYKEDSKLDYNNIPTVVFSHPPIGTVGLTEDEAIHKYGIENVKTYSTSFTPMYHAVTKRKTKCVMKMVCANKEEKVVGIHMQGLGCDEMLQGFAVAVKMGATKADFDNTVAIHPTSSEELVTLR

Recombinant human Trx [4] = target: T2, Recombinant human Trx; format: biochemical; parameters: 6xHis (N); purchased Sigma (Trx); American Diagnostica (bovine TrxR); conditions: over MSSH and MSSCE
Method: See, Luthman M and Holmgren A. Rat liver thioredoxin and thioredoxin reductase: purification and characterization. […] All disulfides were added to reactions as 10x solutions in buffer. The total volume of each reaction was 0.1 mL. Reactions were initiated by the addition of TrxR and were incubated at 25° C. for 40 minutes. Reactions were analyzed using a Molecular Devices SpectraMax Plus UV/vis plate reader and the activity was calculated using a 4 minute linear portion of each assay.

[5] = system: bovine brain microtubule protein (α-/β-tubulin); assay: Microtubule protein polymerization assay (OD350) and electron microscopy; format: biochemical; conditions: monoaquocisplatin 36 μM
[6] = IC50 on WT EGFR kinase activity, 10 μM ATP
[7] = IC50 on WT EGFR kinase activity, 100 μM ATP
[8] = IC50 on WT EGFR kinase activity, 250 μM ATP, conducted only once
[9] = read-out: IC50 on WT EGFR kinase activity, 10 μM ATP
[10] = read-out: IC50 on WT EGFR kinase activity, 100 μM ATP
[11] = read-out: IC50 on WT EGFR kinase activity, 250 μM ATP, conducted only once

Molecule: O=P1(NCCCl)OCCCN1CCCl (centres unmarked) [ifosfamide]
Inhibition of TrxR [1]: inhibited

Molecule: EGF: growth factor ligand of ErbB receptors
ErbB-2 (ErbB-2): − | ErbB-4 (ErbB-4): − | ErbB-3 (ErbB-3): −

Glutathione adduct on Trx (Recombinant human Trx [2]): glutathionylated at cysteine-73 (Cys73)
Molecule: N[C@@H](CCC(=O)N[C@@H](CS)C(=O)NCC(=O)O)C(=O)O [glutathione, γ-glutamyl-cysteinyl-glycine, reference compound]

Molecule: betacellulin: growth factor ligand of ErbB receptors
ErbB-2 (ErbB-2): − | ErbB-1 (ErbB-1): + | ErbB-4 (ErbB-4): + | ErbB-3 (ErbB-3): −

Molecule: NC(CSSCCS(=O)(=O)O)C(=O)O (centres unmarked) [mesna-cysteine]
potentiation of Erlotinib inhibition of WT EGFR kinase activity (WT EGFR kinase): effectively potentiated | IC50 (WT EGFR kinase; [6]): 2750 ± 800 µM | IC50 (WT EGFR kinase; [7]): 2650 ± 110 µM | IC50 (WT EGFR kinase; [8]): 2870 µM | IC50 (T790M EGFR kinase; 10 μM ATP): 3.76 ± 0.26 mM | potentiation of Erlotinib inhibition of T790M EGFR kinase activity (T790M EGFR kinase): effectively potentiated | IC50 (T790M EGFR kinase; 100 μM ATP): 3.03 ± 0.28 mM

Molecule: COc1cccc2c1C(=O)c1c(O)c3c(c(O)c1C2=O)C[C@@](O)(C(C)=O)C[C@@H]3O[C@H]1C[C@H](N)[C@H](O)[C@H](C)O1 [daunorubicin]
Inhibition of TrxR [1]: not inhibitors

Molecule: epiregulin: growth factor ligand of ErbB receptors
ErbB-2 (ErbB-2): − | ErbB-1 (ErbB-1): + | ErbB-4 (ErbB-4): + | ErbB-3 (ErbB-3): −

Molecule: NC(CCSSCCS(=O)(=O)O)C(=O)O (centres unmarked) [MSSH, mesna-homocysteine disulfide]
NADPH oxidation by TrxR and Trx (TrxR/Trx system): increases

Molecule: O=C1[O][Pt]2([NH][C@@H]3CCCC[C@H]3[NH]2)[O]C1=O [oxaliplatin]
Inhibition of GR [3]: not GR | Inhibition of TrxR [1]: irreversibly inhibited

Molecule: HB-EGF: growth factor ligand of ErbB receptors
ErbB-2 (ErbB-2): − | ErbB-1 (ErbB-1): + | ErbB-4 (ErbB-4): + | ErbB-3 (ErbB-3): −

Molecule: NC(CSSCCS(=O)(=O)O)C(=O)NC(CCC(=O)O)C(=O)O (centres unmarked) [mesna-cysteinylglutamate]
potentiation of Erlotinib inhibition of WT EGFR kinase activity (WT EGFR kinase): effectively potentiated | IC50 (WT EGFR kinase; [9]): 714 ± 120 µM | IC50 (WT EGFR kinase; [10]): 815 ± 20 µM | IC50 (WT EGFR kinase; [11]): 690 µM | IC50 (T790M EGFR kinase; 10 μM ATP): 1.09 ± 0.19 mM | potentiation of Erlotinib inhibition of T790M EGFR kinase activity (T790M EGFR kinase): effectively potentiated | IC50 (T790M EGFR kinase; 100 μM ATP): 1.05 ± 0.08 mM

Molecule: amphiregulin: growth factor ligand of ErbB receptors
ErbB-2 (ErbB-2): − | ErbB-1 (ErbB-1): + | ErbB-4 (ErbB-4): − | ErbB-3 (ErbB-3): −

Molecule: CS(=O)(=O)OCCCCOS(C)(=O)=O [busulfan]
Inhibition of GR [3]: not GR | Inhibition of TrxR [1]: irreversibly inhibited

Molecule: neuregulin 1
ErbB-2 (ErbB-2): − | ErbB-1 (ErbB-1): − | ErbB-4 (ErbB-4): + | ErbB-3 (ErbB-3): +

Molecule: NC(CCC(=O)NC(CSSCCS(=O)(=O)O)C(=O)NCC(=O)O)C(=O)O (centres unmarked) [mesna-glutathione]
potentiation of Erlotinib inhibition of WT EGFR kinase activity (WT EGFR kinase): effectively potentiated | IC50 (WT EGFR kinase; [9]): 724 ± 220 µM | IC50 (WT EGFR kinase; [10]): 820 ± 240 µM | IC50 (WT EGFR kinase; [11]): 1570 µM | IC50 (T790M EGFR kinase; 10 μM ATP): 1.28 ± 0.29 mM | potentiation of Erlotinib inhibition of T790M EGFR kinase activity (T790M EGFR kinase): effectively potentiated | IC50 (T790M EGFR kinase; 100 μM ATP): 1.17 ± 0.01 mM

Molecule: O=P1(N(CCCl)CCCl)NCCCO1 (centres unmarked) [cyclophosphamide]
Inhibition of GR [3]: not GR | Inhibition of TrxR [1]: irreversibly inhibited

Molecule: TGF-α: growth factor ligand of ErbB receptors
ErbB-2 (ErbB-2): − | ErbB-4 (ErbB-4): − | ErbB-3 (ErbB-3): −

Molecule: CC1=C(/C=C/C(C)=C/C=C/C(C)=C\C(=O)O)C(C)(C)CCC1 [13-cis-retinoic acid]
Inhibition of TrxR [1]: irreversible inhibition

Molecule: COc1cccc2c1C(=O)c1c(O)c3c(c(O)c1C2=O)C[C@@](O)(C(=O)CO)C[C@@H]3O[C@H]1C[C@H](N)[C@H](O)[C@H](C)O1 [doxorubicin]
Inhibition of TrxR [1]: not inhibitors

Molecule: O=NN(CCCl)C(=O)NCCCl [carmustine]
Inhibition of GR [3]: can inhibit | Inhibition of TrxR [1]: can inhibit

Molecule: N.N.[Cl][Pt+2][Cl] [transplatin]
Inhibition of GR [3]: not GR | Inhibition of TrxR [1]: irreversibly inhibited

Molecule: NC(CSSCCS(=O)(=O)O)C(=O)NCC(=O)O (centres unmarked) [MSSCG, mesna-cysteinyl glycine disulfide]
more inhibition of WT EGFR relative to 4 nM Erlotinib alone (WT EGFR kinase; 10 μM ATP, 0.50 mM + 4 nM Erlotinib): 28% | more inhibition of WT EGFR relative to 4 nM Erlotinib alone (WT EGFR kinase; 10 μM ATP, 0.75 mM + 4 nM Erlotinib (MSSCG series)): 43% | Substrate preference of Trx (Recombinant human Trx [4]): preferred slightly

Molecule: N.N.O=C([O-])C1(C(=O)[O-])CCC1.[Pt+2] [carboplatin]
Inhibition of GR [3]: could not inhibit | Inhibition of TrxR [1]: could not inhibit

Molecule: N[C@@H](Cc1ccc(N(CCCl)CCCl)cc1)C(=O)O [melphalan]
Inhibition of GR [3]: not GR | Inhibition of TrxR [1]: irreversibly inhibited

Molecule: NC(CSSCCS(=O)(=O)O)C(=O)NCC(=O)O (centres unmarked) [mesna-cysteinylglycine]
potentiation of Erlotinib inhibition of WT EGFR kinase activity (WT EGFR kinase): effectively potentiated | IC50 (WT EGFR kinase; [6]): 445 ± 80 µM | IC50 (WT EGFR kinase; [7]): 370 ± 121 µM | IC50 (WT EGFR kinase; [8]): 320 µM | IC50 (T790M EGFR kinase; 10 μM ATP): 0.51 ± 0.01 mM | potentiation of Erlotinib inhibition of T790M EGFR kinase activity (T790M EGFR kinase): effectively potentiated | IC50 (T790M EGFR kinase; 100 μM ATP): 0.41 ± 0.05 mM

Molecule: N.N.[Cl][Pt][Cl] [cisplatin]
Inhibition of GR [3]: not GR | Inhibition of TrxR [1]: irreversibly inhibited

Molecule: O=C(O)CCCc1ccc(N(CCCl)CCCl)cc1 [chlorambucil]
Inhibition of GR [3]: not GR | Inhibition of TrxR [1]: irreversibly inhibited

Molecule: N.N.O.[Cl][Pt+] [monoaquocisplatin, reference compound]
effect of extended exposure on microtubule protein polymerization [5]: notable and reproducible loss

B1: epigen: growth factor ligand of ErbB receptors (protein, UniProt Q6UW88 23-154, looked up)
Epigen: AAVTVTPPITAQQGNWTVNKTEADNIEGPIALKFSHLCLEDHNSYCINGACAFHHELEKAICRCFTGYTGERCEHLTLTSYAVDSYEKYIAIGIGVGLLLSGFLVIFYCYIRKRCLKLKSPYNVCSGERRPL
ErbB-2 (ErbB-2): − | ErbB-1 (ErbB-1): + | ErbB-4 (ErbB-4): − | ErbB-3 (ErbB-3): −

Source: patent publication US20160106439A1, “PNEUMATIC TOURNIQUET” (BIONUMERIK PHARMACEUTICALS, INC., priority 2013, published 2016)
